Laboratory results published in the supplement of paper PMC10307832.

Assays:
Test in all cases: relative viability (nuclei count vs DMSO), 5 days (fraction); higher = more cells survive
[1] = tested on: NCI-H520
In short: (§1)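 Cells from lung cancer lines were seeded into 1536-well plates and, one day later, dosed by pin tool. Treatments were either a single drug or a fixed dose of an anchor drug with five library-drug doses (not always all listed) in √10 steps. After 5 days, nuclei were stained in a one-step fixation (final 0.05% Triton X-100, 1% formaldehyde, 1 ug/ml Hoechst) and counted on 4× images, and relative viability is the treated-to-vehicle nuclei ratio, as the median of duplicate plates.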

[2] = tested on: NCI-H460
In short: as §1

[3] = tested on: PC-3 [JPC-3]
In short: as §1

[4] = tested on: NCI-H1915
In short: as §1

[5] = tested on: NCI-H661
In short: as §1

[6] = tested on: BEN
In short: as §1

[7] = tested on: CAL-12T
In short: as §1

[8] = tested on: NCI-H727
In short: as §1

[9] = tested on: NCI-H650
In short: as §1

[10] = tested on: NCI-H2023
In short: as §1

[11] = tested on: LCLC-97TM1
In short: as §1

[12] = tested on: NCI-H1650
In short: as §1

[13] = tested on: NCI-H1944
In short: as §1

[14] = tested on: NCI-H1651
In short: as §1

[15] = tested on: LC-2-ad
In short: as §1

[16] = tested on: NCI-H596
In short: as §1

[17] = tested on: H3255
In short: as §1

[18] = tested on: NCI-H2087
In short: as §1

[19] = tested on: ABC-1
In short: as §1

[20] = tested on: A-427
In short: as §1

[21] = tested on: NCI-H441
In short: as §1

[22] = tested on: 201T
In short: as §1

CC(=O)O[C@@]12CO[C@@H]1C[C@H](O)[C@@]1(C)C(=O)[C@H](O)C3=C(C)[C@@H](OC(=O)[C@H](O)[C@@H](NC(=O)OC(C)(C)C)c4ccccc4)C[C@@](O)([C@@H](OC(=O)c4ccccc4)[C@H]21)C3(C)C [Docetaxel] + O=C(c1cc(Cc2n[nH]c(=O)c3ccccc23)ccc1F)N1CCN(C(=O)C2CC2)CC1 [Olaparib] (partner 8 µM)
relative viability ([1]; first compound 0.0002 µM): 0.31 | relative viability ([1]; first compound 0.000632 µM): 0.286 | relative viability ([1]; first compound 0.002 µM): 0.22 | relative viability ([1]; first compound 0.006325 µM): 0.165 | relative viability ([1]; first compound 0.02 µM): 0.132 | relative viability ([2]; first compound 0.0002 µM): 0.373 | relative viability ([2]; first compound 0.000632 µM): 0.31 | relative viability ([2]; first compound 0.002 µM): 0.0608 | relative viability ([2]; first compound 0.006325 µM): 0.0428 | relative viability ([2]; first compound 0.02 µM): 0.0276 | relative viability ([3]; first compound 0.0002 µM): 1.13 | relative viability ([3]; first compound 0.000632 µM): 1.03 | relative viability ([3]; first compound 0.002 µM): 0.585 | relative viability ([3]; first compound 0.006325 µM): 0.388 | relative viability ([3]; first compound 0.02 µM): 0.234 | relative viability ([4]; first compound 0.0002 µM): 0.278 | relative viability ([4]; first compound 0.000632 µM): 0.256 | relative viability ([4]; first compound 0.002 µM): 0.179 | relative viability ([4]; first compound 0.006325 µM): 0.144 | relative viability ([4]; first compound 0.02 µM): 0.0963 | relative viability ([5]; first compound 0.0002 µM): 0.738 | relative viability ([5]; first compound 0.000632 µM): 0.701 | relative viability ([5]; first compound 0.002 µM): 0.592 | relative viability ([5]; first compound 0.006325 µM): 0.434 | relative viability ([5]; first compound 0.02 µM): 0.406 | relative viability ([6]; first compound 0.0002 µM): 1.11 | relative viability ([6]; first compound 0.000632 µM): 1.06 | relative viability ([6]; first compound 0.002 µM): 0.514 | relative viability ([6]; first compound 0.006325 µM): 0.357 | relative viability ([6]; first compound 0.02 µM): 0.275 | relative viability ([7]; first compound 0.0002 µM): 0.591 | relative viability ([7]; first compound 0.000632 µM): 0.392 | relative viability ([7]; first compound 0.002 µM): 0.253 | relative viability ([7]; first compound 0.006325 µM): 0.263 | relative viability ([7]; first compound 0.02 µM): 0.173 | relative viability ([8]; first compound 0.0002 µM): 0.664 | relative viability ([8]; first compound 0.000632 µM): 0.526 | relative viability ([8]; first compound 0.002 µM): 0.682 | relative viability ([8]; first compound 0.006325 µM): 0.645 | relative viability ([8]; first compound 0.02 µM): 0.524 | relative viability ([9]; first compound 0.0002 µM): 0.361 | relative viability ([9]; first compound 0.000632 µM): 0.292 | relative viability ([9]; first compound 0.002 µM): 0.192 | relative viability ([9]; first compound 0.006325 µM): 0.189 | relative viability ([9]; first compound 0.02 µM): 0.148 | relative viability ([10]; first compound 0.0002 µM): 0.437 | relative viability ([10]; first compound 0.000632 µM): 0.313 | relative viability ([10]; first compound 0.002 µM): 0.114 | relative viability ([10]; first compound 0.006325 µM): 0.114 | relative viability ([10]; first compound 0.02 µM): 0.0533 | relative viability ([11]; first compound 0.0002 µM): 0.467 | relative viability ([11]; first compound 0.000632 µM): 0.272 | relative viability ([11]; first compound 0.002 µM): 0.107 | relative viability ([11]; first compound 0.006325 µM): 0.0877 | relative viability ([11]; first compound 0.02 µM): 0.0634 | relative viability ([12]; first compound 0.0002 µM): 0.64 | relative viability ([12]; first compound 0.000632 µM): 0.545 | relative viability ([12]; first compound 0.002 µM): 0.218 | relative viability ([12]; first compound 0.006325 µM): 0.241 | relative viability ([12]; first compound 0.02 µM): 0.162 | relative viability ([13]; first compound 0.0002 µM): 0.439 | relative viability ([13]; first compound 0.000632 µM): 0.396 | relative viability ([13]; first compound 0.002 µM): 0.339 | relative viability ([13]; first compound 0.006325 µM): 0.238 | relative viability ([13]; first compound 0.02 µM): 0.118 | relative viability ([14]; first compound 0.0002 µM): 0.188 | relative viability ([14]; first compound 0.000632 µM): 0.206 | relative viability ([14]; first compound 0.002 µM): 0.177 | relative viability ([14]; first compound 0.006325 µM): 0.137 | relative viability ([15]; first compound 0.0002 µM): 0.623 | relative viability ([15]; first compound 0.000632 µM): 0.411 | relative viability ([15]; first compound 0.002 µM): 0.304 | relative viability ([15]; first compound 0.02 µM): 0.191 | relative viability ([16]; first compound 0.0002 µM): 0.685 | relative viability ([16]; first compound 0.000632 µM): 0.83 | relative viability ([16]; first compound 0.002 µM): 0.638 | relative viability ([16]; first compound 0.006325 µM): 0.418 | relative viability ([16]; first compound 0.02 µM): 0.338 | relative viability ([17]; first compound 0.0002 µM): 0.59 | relative viability ([17]; first compound 0.000632 µM): 0.555 | relative viability ([17]; first compound 0.002 µM): 0.439 | relative viability ([17]; first compound 0.006325 µM): 0.336 | relative viability ([17]; first compound 0.02 µM): 0.33 | relative viability ([18]; first compound 0.0002 µM): 0.586 | relative viability ([18]; first compound 0.000632 µM): 0.3 | relative viability ([18]; first compound 0.002 µM): 0.243 | relative viability ([18]; first compound 0.006325 µM): 0.125 | relative viability ([18]; first compound 0.02 µM): 0.0944 | relative viability ([19]; first compound 0.0002 µM): 0.649 | relative viability ([19]; first compound 0.000632 µM): 0.827 | relative viability ([19]; first compound 0.002 µM): 0.564 | relative viability ([19]; first compound 0.006325 µM): 0.535 | relative viability ([19]; first compound 0.02 µM): 0.338 | relative viability ([20]; first compound 0.0002 µM): 0.662 | relative viability ([20]; first compound 0.000632 µM): 0.704 | relative viability ([20]; first compound 0.002 µM): 0.538 | relative viability ([20]; first compound 0.006325 µM): 0.292 | relative viability ([20]; first compound 0.02 µM): 0.198 | relative viability ([21]; first compound 0.0002 µM): 0.446 | relative viability ([21]; first compound 0.000632 µM): 0.324 | relative viability ([21]; first compound 0.002 µM): 0.223 | relative viability ([21]; first compound 0.006325 µM): 0.158 | relative viability ([21]; first compound 0.02 µM): 0.161 | relative viability ([22]; first compound 0.0002 µM): 0.821 | relative viability ([22]; first compound 0.000632 µM): 0.774 | relative viability ([22]; first compound 0.002 µM): 0.637 | relative viability ([22]; first compound 0.006325 µM): 0.432 | relative viability ([22]; first compound 0.02 µM): 0.267
